Data taken from the supplement of paper PMC10307832.

How the values were obtained:
Test in all cases: relative viability (nuclei count vs DMSO), 5 days (fraction); higher = more cells survive
Shikonin + Palbociclib = compound: CC(C)=CC[C@@H](O)C1=CC(=O)c2c(O)ccc(O)c2C1=O [Shikonin] + CC(=O)c1c(C)c2cnc(Nc3ccc(N4CCNCC4)cn3)nc2n(C2CCCC2)c1=O [Palbociclib] (partner 0.5 µM)
Outline: (§1)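 Cells from lung cancer lines were seeded into 1536-well plates and, one day later, dosed by pin tool. Treatments were either a single drug or a fixed dose of an anchor drug with five library-drug doses (not always all listed) in √10 steps. After 5 days, nuclei were stained in a one-step fixation (final 0.05% Triton X-100, 1% formaldehyde, 1 ug/ml Hoechst) and counted on 4× images, and relative viability is the treated-to-vehicle nuclei ratio, as the median of duplicate plates.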

Shikonin + Crizotinib = compound: CC(C)=CC[C@@H](O)C1=CC(=O)c2c(O)ccc(O)c2C1=O [Shikonin] + C[C@@H](Oc1cc(-c2cnn(C3CCNCC3)c2)cnc1N)c1c(Cl)ccc(F)c1Cl [Crizotinib] (partner 1 µM)
Outline: as §1

[1] = compound: CC(C)N(CCCNC(=O)Nc1ccc(C(C)(C)C)cc1)C[C@H]1O[C@@H](n2ccc3c(N)ncnc32)[C@H](O)[C@@H]1O + CC(C)C[C@H](NC(=O)[C@H](Cc1ccccc1)NC(=O)c1cnccn1)B(O)O [Bortezomib] (partner 0.002 µM)
Outline: as §1

[2] = compound: CC(C)N(CCCNC(=O)Nc1ccc(C(C)(C)C)cc1)C[C@H]1O[C@@H](n2ccc3c(N)ncnc32)[C@H](O)[C@@H]1O + O=C(CCCCCCC(=O)Nc1ccccc1)NO [Vorinostat] (partner 1 µM)
Outline: as §1

Cell Line | relative viability (Shikonin + Palbociclib; first compound 0.01 µM) | relative viability (Shikonin + Palbociclib; first compound 0.1 µM) | relative viability (Shikonin + Palbociclib; first compound 0.3162 µM) | relative viability (Shikonin + Palbociclib; first compound 1 µM) | relative viability (Shikonin + Crizotinib; first compound 0.01 µM) | relative viability (Shikonin + Crizotinib; first compound 0.1 µM) | relative viability (Shikonin + Crizotinib; first compound 0.3162 µM) | relative viability (Shikonin + Crizotinib; first compound 1 µM) | relative viability ([1]; first compound 0.08 µM) | relative viability ([1]; first compound 0.253 µM) | relative viability ([1]; first compound 0.8 µM) | relative viability ([1]; first compound 2.53 µM) | relative viability ([1]; first compound 8 µM) | relative viability ([2]; first compound 0.08 µM) | relative viability ([2]; first compound 0.253 µM) | relative viability ([2]; first compound 0.8 µM) | relative viability ([2]; first compound 2.53 µM) | relative viability ([2]; first compound 8 µM)
HOP-62 | 0.471 | 0.581 | 0.559 | 0.447 | 0.61 | 0.95 | 0.32 | 1.02 | 0.599 | 0.854 | 0.132 | 0.605 | 0.361 | 0.711 | 0.555 | 0.445 | 0.58 | 0.458
LC-2-ad | 0.533 | 0.483 | 0.441 | 0.511 | 0.404 | 0.45 | 0.423 | 0.364 | 0.968 | 1.2 | 0.65 | 0.978 | 0.878 | 0.666 | 0.784 | 0.55 | 0.722 | 0.671
LCLC-97TM1 | 0.293 | 0.279 | 0.279 | 0.23 | 0.573 | 0.46 | 0.3 | 0.247 | 0.681 | 0.686 | 0.493 | 0.422 | 0.631 | 0.893 | 0.656 | 0.801 | 0.661 | 0.831
LCLC-103H | 0.462 | 0.498 | 0.521 | 0.429 | 0.953 | 1 | 1.13 | 1.06 | 1.09 | 1 | 0.686 | 1.04 | 1.02 | 0.717 | 0.692 | 0.585 | 0.701 | 0.748
LOU-NH91 | 0.546 | 0.526 | 0.549 | 0.5 | 0.737 | 0.686 | 0.775 | 0.737 | 0.442 | 0.449 |  | 0.421 | 0.608 | 0.9 | 0.832 |  | 0.943 | 0.869
LU99A | 0.457 | 0.486 | 0.348 | 0.38 | 0.545 | 0.688 | 0.599 | 0.465 | 1.12 | 0.831 | 1.38 | 1.16 | 1.2 | 0.454 | 0.342 | 0.483 | 0.539 | 0.409
LXF-289 | 0.594 | 0.707 | 0.618 | 0.622 | 0.856 | 0.825 | 0.773 | 0.844 | 1 | 0.993 | 0.719 | 1.03 | 0.98 | 0.748 | 0.762 | 0.726 | 0.752 | 0.701
